{"source": "paper PMC2945410", "about": "(Journal of molecular biology, 2010)", "key": {"E. coli YahA": {"biological_target": "T1, E. coli YahA (Escherichia coli, UniProt P21514)", "T1 sequence (P21514 73-362)": "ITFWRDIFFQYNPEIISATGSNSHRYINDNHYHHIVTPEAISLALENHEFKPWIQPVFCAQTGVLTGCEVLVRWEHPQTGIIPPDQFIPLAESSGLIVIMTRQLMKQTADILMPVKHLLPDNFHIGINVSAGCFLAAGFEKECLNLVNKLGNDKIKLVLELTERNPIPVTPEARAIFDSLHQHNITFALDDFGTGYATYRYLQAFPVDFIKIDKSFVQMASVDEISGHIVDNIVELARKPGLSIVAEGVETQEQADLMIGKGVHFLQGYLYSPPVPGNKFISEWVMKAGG", "assay": "p-nitrophenol release, absorbance at […] nm", "format": "biochemical", "conditions": "10 mM bis-pNPP, 50 mM HEPES pH 7.5, 2 mM MnCl2"}, "TBD1660": {"biological_target": "T2, TBD1660 (Thiobacillus denitrificans, UniProt Q3SIB5)", "T2 sequence (Q3SIB5 443-698)": "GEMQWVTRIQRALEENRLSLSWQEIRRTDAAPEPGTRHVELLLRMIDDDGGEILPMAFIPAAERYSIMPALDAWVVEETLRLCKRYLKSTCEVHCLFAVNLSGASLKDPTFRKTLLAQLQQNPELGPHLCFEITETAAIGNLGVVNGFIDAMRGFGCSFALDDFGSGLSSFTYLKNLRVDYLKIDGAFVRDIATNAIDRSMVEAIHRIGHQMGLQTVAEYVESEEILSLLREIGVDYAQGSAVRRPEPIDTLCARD", "assay": "p-nitrophenol release, absorbance at […] nm", "format": "biochemical", "conditions": "10 mM bis-pNPP, 50 mM HEPES pH 7.5, 2 mM MnCl2"}}, "data": [{"smiles": "O=[N+]([O-])c1ccc(OP(=O)(O)Oc2ccc([N+](=O)[O-])cc2)cc1", "note": "[bis-pNPP, bis-p-nitrophenyl phosphate]", "values": [{"measurement": "p-nitrophenol release, absorbance at 410 nm", "setting": "E. coli YahA", "value": "E. coli YahA and T. denitrificans TBD1660 showing the highest activities"}, {"measurement": "p-nitrophenol release, absorbance at 410 nm", "setting": "TBD1660", "value": "E. coli YahA and T. denitrificans TBD1660 showing the highest activities"}]}]}
